Assay results taken from patent publication US20150209316A1, “AGENT FOR ENHANCING IMMUNITY CONTAINING GLUTATHIONE” (KYOWA HAKKO BIO CO., LTD., priority 2012, published 2015).

Tests used:
[1] = tested on: lymphocyte; conditions: by administering 2-ME; cited from earlier work
[2] = tested on: lymphocytes; conditions: after 3 months, both GSH groups (250 and 1000 mg/day oral), dose dependent
Protocol: The design included the recruitment of healthy subjects (28-79 yr. of age, mean=46.6 years) randomized into 3 groups (GSH at 1000 mg/day, GSH at 250 mg/day, and placebo). […] Blood samples were obtained from all subjects at baseline. Subjects began supplementation according to the following schedule: Glutathione capsules were provided by the sponsor, Kyowa Hakko USA. Capsules were formulated, and subjects began supplementation according to the following schedule as follows: • Group A, GSH: 500 mg/capsule and cellulose: 15 mg/capsule, (2 pills daily); • Group B, GSH: 125 mg/capsule and cellulose: 360 mg/capsule, (2 pills daily); • Group C (placebo), cellulose: 470 mg/capsule, (2 pills daily). […]
(§1) Blood samples were collected from an antecubital vein into 3 tubes containing sodium heparin as an anticoagulant and immediately placed on ice. […] Cell number was assessed after addition of 40 μl trypan blue to 10 μl of cell suspension using a hemocytometer. […]
Lymphocyte Proliferation—Lymphocyte samples from each of the 5 time points (0, 1, 3, 6, and 7 months) were thawed, washed 3 times and counted to determine cell viability. […] Cell proliferation was monitored by 3H-thymidine incorporation. Intracellular radioactivity was measured by liquid scintillation counting and results were expressed as cpm.

[3] = tested on: murine-derived splenic lymphocytes; conditions: in vitro; cited from earlier work
[4] = tested on: murine-derived splenic lymphocytes; conditions: in vitro; cited from earlier work; remark: listed apart in the source
[5] = tested on: human K562 cells; conditions: after 3 months
Protocol: The design included the recruitment of healthy subjects (28-79 yr. of age, mean=46.6 years) randomized into 3 groups (GSH at 1000 mg/day, GSH at 250 mg/day, and placebo). […] Blood samples were obtained from all subjects at baseline. […] Capsules were formulated, and subjects began supplementation according to the following schedule as follows: • Group A, GSH: 500 mg/capsule and cellulose: 15 mg/capsule, (2 pills daily); • Group B, GSH: 125 mg/capsule and cellulose: 360 mg/capsule, (2 pills daily); • Group C (placebo), cellulose: 470 mg/capsule, (2 pills daily).
Eligible participants were randomly assigned to either placebo (Group C) or high (Group A) or low (Group B) dose glutathione groups. […]
as §1
NK Cell Cytotoxicity—NK cell cytotoxicity was assessed using human K562 cells, labeled with sodium ^51chromate as target cell. […] Lymphocyte samples from each of the five time points were thawed, washed 3 times, counted to determine cell viability and added in triplicate to the wells at an effector:target cell ratio of 10:1. After incubation for 4 hr. at 37° C., cells were collected and supernatant analyzed for radioactivity by gamma counting. […]

[6] = tested on: NK cell; conditions: oral administration to a human; cited from earlier work
[7] = oral administration to a human; cited from earlier work
[8] = tested on: lymphocyte; conditions: oral administration to a human; cited from earlier work

For `OCCS` [2-melcaptoethanol], the lymphocyte proliferation [1] is listed as “lymphocyte proliferation action”.

In the case of `N[C@@H](CCC(=O)N[C@@H](CS)C(=O)NCC(=O)O)C(=O)O` [GSH, γ-L-Glu-L-Cys-Gly], the “mean proliferative capacity of lymphocytes (3H-thymidine, cpm)” value [2] is reported as “Increases in mean proliferative capacity were observed”, the “glutathione concentration in lymphocytes compared to placebo group (Group C)” value (Group A, 1000 mg/day oral, 1 and 6 months, chi-square test) is reported as “significant difference (p<0.05)” and the “maximum increase of lymphocyte total glutathione” value (high dose GSH group (1000 mg/day oral), after 6 months) is reported as “about 30%”. For the same molecule, the “time course of lymphocyte glutathione levels” value (high dose group (1.0 g/day oral), 1, 3, 6 months) was “levels progressively increasing from 1 to 3 to 6 months of administration”, the “NK cell cytotoxic activity” value [3] was “increased in a GSH concentration dependent fashion” and the “Con A induced lymphocyte proliferation activity” value [4] was “increased in a GSH concentration dependent fashion”. For the same molecule, the “mean % lysis values (NK cell cytotoxicity)” value ([5]; both GSH groups (250 and 1000 mg/day oral), dose dependent, effector:target 10:1) was “Increases in mean % lysis values were observed” and the “significance of increase in % lysis versus baseline” value ([5]; high GSH dose arm 1000 mg/day, Ppaired=0.01) was “only significant in the high GSH dose arm”.

For `CC(=O)N[C@@H](CS)C(=O)O` [N-acetylcysteine], the “NK cell cytotoxic activity” value [6] is given as “increased”, the “glutathione concentration in immune cells” value [7] is given as “increased” and the “PHA stimulated lymphocyte proliferation” value [8] is given as “increased”.
